Data reported in patent publication US12077503B2, “Substituted cyclic amides and their use as herbicides” (FMC CORPORATION, priority 2015, dated 2024).

Tests used:
Type in all cases: in vivo
Kochia (Kochia scoparia) [1] = test: Test A preemergence; conditions: Bassia scoparia, pre-emergence, 240 h, Preemergence
Method in brief: (§1)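 Treatment is preemergence as a directed soil spray after planting, or postemergence at the one- to two-leaf stage, with test chemical in a non-phytotoxic solvent mixture plus surfactant. Plants stay in the greenhouse about 10 d before visual injury scoring on a 0 to 100 scale versus untreated controls.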

[2] = tested on: barnyardgrass (Echinochloa crus-galli); test: Test A preemergence; conditions: Echinochloa crus-galli, pre-emergence, 240 h, Preemergence
Method in brief: as §1

[3] = tested on: giant foxtail (Setaria faberii); test: Test A preemergence; conditions: Setaria faberi, pre-emergence, 240 h, Preemergence
Method in brief: as §1

[4] = tested on: pigweed (Amaranthus retroflexus); test: Test A preemergence; conditions: Amaranthus retroflexus, pre-emergence, 240 h, Preemergence
[5] = tested on: ragweed (common ragweed, Ambrosia elatior); test: Test A preemergence; conditions: Ambrosia artemisiifolia, pre-emergence, 240 h, Preemergence
Method in brief: as §1

[6] = tested on: ryegrass, Italian (Italian ryegrass, Lolium multiflorum); test: Test A preemergence; conditions: Lolium multiflorum, pre-emergence, 240 h, Preemergence
Method in brief: as §1

[7] = tested on: Galium (catchweed bedstraw, Galium aparine); test: Test A postemergence; conditions: Galium, post-emergence, 240 h, Postemergence, read-out: Plant response rating, Galium
Method in brief: as §1

Kochia (Kochia scoparia) [8] = test: Test A postemergence; conditions: Bassia scoparia, post-emergence, 240 h, Postemergence, read-out: Plant response rating, Kochia
Method in brief: as §1

[9] = tested on: barnyardgrass (Echinochloa crus-galli); test: Test A postemergence; conditions: Echinochloa crus-galli, post-emergence, 240 h, Postemergence, read-out: Plant response rating, Barnyardgrass
Method in brief: as §1

[10] = tested on: blackgrass (Alopecurus myosuroides); test: Test A postemergence; conditions: Alopecurus myosuroides, post-emergence, 240 h, Postemergence, read-out: Plant response rating, Blackgrass
Method in brief: as §1

corn (Zea mays) = test: Test A postemergence; conditions: Zea mays, post-emergence, 240 h, Postemergence
Method in brief: as §1

[11] = tested on: giant foxtail (Setaria faberii); test: Test A postemergence; conditions: Setaria faberi, post-emergence, 240 h, Postemergence, read-out: Plant response rating, Foxtail, Giant
Method in brief: as §1

[12] = tested on: pigweed (Amaranthus retroflexus); test: Test A postemergence; conditions: Amaranthus retroflexus, post-emergence, 240 h, Postemergence, read-out: Plant response rating, Pigweed
Method in brief: as §1

[13] = tested on: ragweed (common ragweed, Ambrosia elatior); test: Test A postemergence; conditions: Ambrosia artemisiifolia, post-emergence, 240 h, Postemergence, read-out: Plant response rating, Ragweed
Method in brief: as §1

[14] = tested on: ryegrass, Italian (Italian ryegrass, Lolium multiflorum); test: Test A postemergence; conditions: Lolium multiflorum, post-emergence, 240 h, Postemergence, read-out: Plant response rating, Ryegrass, Italian
Method in brief: as §1

[15] = tested on: wheat (Triticum aestivum); test: Test A postemergence; conditions: Triticum aestivum, post-emergence, 240 h, Postemergence, read-out: Plant response rating, Wheat
Method in brief: as §1

[16] = tested on: barnyardgrass (Echinochloa crus-galli); test: Test B flooded paddy test; conditions: Echinochloa crus-galli, 250 g ai/ha, Flood; 0 to 100 scale where 0 is no effect and 100 is complete control; read-out: Barnyardgrass plant response rating
Method in brief: (§2)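 Response scored visually against untreated controls, 0 = no effect and 100 = complete control, 13–15 d after treatment in the greenhouse. Compounds added to paddy water held 3 cm above soil surface. Treatment given at 2-leaf stage.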

[17] = tested on: ducksalad (Heteranthera limosa); test: Test B flooded paddy test; conditions: Heteranthera limosa, 250 g ai/ha, Flood; 0 to 100 scale where 0 is no effect and 100 is complete control; read-out: Ducksalad plant response rating
Method in brief: as §2

rice (Oryra sativa) = test: Test B flooded paddy test; conditions: Oryza sativa, 250 g ai/ha, Flood; 0 to 100 scale where 0 is no effect and 100 is complete control; read-out: Rice plant response rating
Method in brief: as §2

[18] = tested on: sedge, umbrella (small-flower umbrella sedge, Cyperus difformis); test: Test B flooded paddy test; conditions: Cyperus difformis, 250 g ai/ha, Flood; 0 to 100 scale where 0 is no effect and 100 is complete control; read-out: Sedge, Umbrella plant response rating
Method in brief: as §2

[19] = 125 g ai/ha, visual injury after approximately 10 d, 0 to 100 scale where 0 is no effect and 100 is complete control
[20] = 31 g ai/ha, visual injury after approx. 10 d, 0 to 100 scale, 0 no effect, 100 complete control

CC(C)=CC1CNC(=O)C1C(=O)Nc1ccccc1F (stereo not drawn) [Compound 1011]
0%: pest or weed control at 31 g/ha (Kochia (Kochia scoparia) [1]; 31 g ai/ha, 0 to 100 scale where 0 is no effect and 100 is complete control, read-out: Kochia plant response rating) | pest or weed control at 125 g/ha (Kochia (Kochia scoparia) [1]; 125 g ai/ha, visual injury rating after approximately 10 d, read-out: Kochia plant response rating (0 to 100 scale, 0 is no effect, 100 is complete control)) | pest or weed control at 125 g/ha ([2]; 125 g ai/ha, visual injury rating after approximately 10 d, read-out: Barnyardgrass plant response rating (0 to 100 scale, 0 is no effect, 100 is complete control)) | pest or weed control at 31 g/ha ([2]; 31 g ai/ha, 0 to 100 scale (0 no effect, 100 complete control), read-out: Plant response rating, Barnyardgrass) | pest or weed control at 125 g/ha ([3]; 125 g ai/ha, visual injury rating after approximately 10 d, read-out: Foxtail, Giant plant response rating (0 to 100 scale, 0 is no effect, 100 is complete control)) | pest or weed control at 31 g/ha ([3]; 31 g ai/ha, 0 to 100 scale (0 no effect, 100 complete control), read-out: Plant response rating, Foxtail, Giant) | pest or weed control at 31 g/ha ([4]; 31 g ai/ha, 0 to 100 scale where 0 is no effect and 100 is complete control, read-out: Pigweed plant response rating) | pest or weed control at 125 g/ha ([4]; 125 g ai/ha, visual injury rating after approximately 10 d, read-out: Pigweed plant response rating (0 to 100 scale, 0 is no effect, 100 is complete control)) | pest or weed control at 31 g/ha ([5]; 31 g ai/ha, 0 to 100 scale where 0 is no effect and 100 is complete control, read-out: Ragweed plant response rating) | pest or weed control at 125 g/ha ([5]; 125 g ai/ha, visual injury rating after approximately 10 d, read-out: Ragweed plant response rating (0 to 100 scale, 0 is no effect, 100 is complete control)) | pest or weed control at 31 g/ha ([6]; 31 g ai/ha, 0 to 100 scale where 0 is no effect and 100 is complete control, read-out: Ryegrass, Italian plant response rating) | pest or weed control at 125 g/ha ([6]; 125 g ai/ha, visual injury rating after approximately 10 d, read-out: Ryegrass, Italian plant response rating (0 to 100 scale, 0 is no effect, 100 is complete control)) | pest or weed control at 125 g/ha [7, 19] | pest or weed control at 31 g/ha [7, 20] | pest or weed control at 125 g/ha (Kochia (Kochia scoparia) [8]; [19]) | pest or weed control at 31 g/ha (Kochia (Kochia scoparia) [8]; [20]) | pest or weed control at 125 g/ha [9, 19] | pest or weed control at 31 g/ha [9, 20] | pest or weed control at 125 g/ha [10, 19] | pest or weed control at 31 g/ha [10, 20] | Corn plant response rating (crop injury, 0 = no effect, 100 = complete kill) at 125 g/ha (corn (Zea mays); [19]) | Corn plant response rating (crop injury, 0 = no effect, 100 = complete kill) at 31 g/ha (corn (Zea mays); [20]) | pest or weed control at 125 g/ha [11, 19] | pest or weed control at 31 g/ha [11, 20] | pest or weed control at 125 g/ha [12, 19] | pest or weed control at 31 g/ha [12, 20] | pest or weed control at 125 g/ha [13, 19] | pest or weed control at 31 g/ha [13, 20] | pest or weed control at 125 g/ha [14, 19] | pest or weed control at 31 g/ha [14, 20] | plant injury at 125 g/ha [15, 19] | plant injury at 31 g/ha [15, 20] | pest or weed control at 250 g/ha [16] | pest or weed control at 250 g/ha [17] | pest or weed control at 250 g/ha (rice (Oryra sativa)) | pest or weed control at 250 g/ha [18]
